{"source": "paper PMC6205183", "about": "(Oncotarget, 2018)", "key": {"Axl [1]": {"test_system": "Axl", "conditions": "no reference given; cited from earlier work"}, "K562-R cells": {"test_system": "K562-R cells", "experiment": "Viability assay (Annexin V/7AAD), K562-R", "format": "cell-based, human", "conditions": "for viability on co-treatment with ponatinib / IC50: K562-R; for viability on co-treatment with ponatinib: compared to control line; for IC50: read-out: TKI viability assay IC50", "procedure": "(§1) Cells were removed from drug-containing culture medium, washed and re-cultured in fresh media (with testing drug) for 72 hours. Cells then were stained with 7-Amino-actinomycin D (7AAD) and Annexin V-PE. Flow cytometry (BD LSRFortessaTM X-20 with high-throughput platform) was performed to determine cell viability: cells stained positive for Annexin V-PE and 7AAD were considered to be apoptotic or dead respectively. The data were analysed using FCS Express software (DeNovo Software, Los Angeles, California, USA)."}, "K562 DOX-R cells": {"test_system": "K562 DOX-R cells", "experiment": "Viability assay (Annexin V/7AAD), K562 DOX-R", "format": "cell-based, human", "conditions": "for viability on co-treatment with ponatinib / IC50: K562 DOX-R; for viability on co-treatment with ponatinib: compared to control line; for IC50: read-out: TKI viability assay IC50", "procedure": "as §1"}, "Axl [2]": {"test_system": "Axl", "parameters": "method as in PMID 20080645, PMID 16230391, PMID 20603615, PMID 20145120", "conditions": "cited from earlier work"}, "K562 DOX 55D-R cells": {"test_system": "K562 DOX 55D-R cells", "experiment": "cells", "conditions": "Homo sapiens, K562, read-out: TKI viability assay IC50", "procedure": "as §1"}, "K562 T315I-R cells": {"test_system": "K562 T315I-R cells", "experiment": "cells", "conditions": "Homo sapiens, K562, read-out: TKI viability assay IC50", "procedure": "as §1"}, "K562 cells": {"test_system": "K562 cells", "experiment": "Viability assay (Annexin V/7AAD), K562 control", "format": "cell-based, human", "conditions": "200 nM ponatinib, three days", "procedure": "(§2) Flow cytometry (BD LSRFortessaTM X-20 with high-throughput platform) was performed to determine cell viability: cells stained positive for Annexin V-PE and 7AAD were considered to be apoptotic or dead respectively. […]"}, "K562-R-AXL KD cells": {"test_system": "K562-R-AXL KD cells", "experiment": "Viability assay, AXL knock-down K562-R", "format": "cell-based, human", "conditions": "10 nM ponatinib, 72 hours, n=3", "procedure": "(§3) Stable AXL knock-down K562-R-AXL KD, and K562 DOX-R-AXL KD cell lines were generated, as well as the scramble control lines K562-R-scramble CTL, and K562 DOX-R-scramble CTL.\nas §1\n(§4) The GFP level and Axl expression level were measured after fluorescence-activated cell sorting (FACS) and before each experiment to ensure purity."}, "K562 DOX cells": {"test_system": "K562 DOX cells", "experiment": "Viability assay (Annexin V/7AAD), K562 DOX control", "format": "cell-based, human", "conditions": "200 nM ponatinib, three days", "procedure": "as §2"}, "K562 DOX-R-AXL KD cells": {"test_system": "K562 DOX-R-AXL KD cells", "experiment": "Viability assay, AXL knock-down K562 DOX-R", "format": "cell-based, human", "conditions": "10 nM ponatinib, 72 hours, n=3", "procedure": "as §3, §1, §4"}, "[3]": {"test_system": "K562-R-scramble CTL cells", "experiment": "Viability assay, scramble shRNA K562-R", "format": "cell-based, human", "conditions": "K562-R scrambled shRNA control, 10 nM ponatinib, 72 hours, n=3", "procedure": "as §3, §1, §4"}, "[4]": {"conditions": "45 mg once daily; cited from earlier work"}, "[5]": {"test_system": "K562 DOX-R-scramble CTL cells", "experiment": "Viability assay, scramble shRNA K562 DOX-R", "format": "cell-based, human", "conditions": "K562 DOX-R scrambled shRNA control, 10 nM ponatinib, 72 hours, n=3", "procedure": "as §3, §1, §4"}}, "note": "“Also recorded” adds a separate entry of the source.", "data": [{"compound": "CCOc1ccn(-c2ccc(F)cc2)c(=O)c1C(=O)Nc1ccc(Oc2ccnc(N)c2Cl)c(F)c1", "note": "[BMS-777607]", "values": [{"measurement": "potency against Axl relative to MET", "setting": "Axl [1]", "result": 3, "unit": "times"}, {"measurement": "viability on co-treatment with ponatinib", "setting": "K562-R cells; 12.5 μM BMS777607 + 200 nM ponatinib, n=3, p=0.03", "result": "significantly reduced; also recorded: induced cell death significantly"}, {"measurement": "viability on co-treatment with ponatinib", "setting": "K562 DOX-R cells; 12.5 μM BMS777607 + 200 nM ponatinib, n=4, p<0.01", "result": "significantly reduced; also recorded: induced cell death significantly"}]}, {"compound": "Nc1nc(Nc2ccc3c(c2)CCC(N2CCCC2)CC3)nn1-c1cc2c(nn1)-c1ccccc1CCC2", "note": "(stereo not drawn) [R428]", "values": [{"measurement": "specificity in targeting Axl over the other TAM family members (Mer and Tyro3)", "setting": "Axl [2]", "result": "50 to 100", "unit": "fold"}, {"measurement": "viability on co-treatment with ponatinib", "setting": "K562-R cells; 1 μM R428 + 200 nM ponatinib, n=3, p=0.02", "result": "significantly reduced; also recorded: induced cell death significantly"}, {"measurement": "viability on co-treatment with ponatinib", "setting": "K562 DOX-R cells; 1 μM R428 + 200 nM ponatinib, n=4, p=0.02", "result": "significantly reduced; also recorded: induced cell death significantly"}]}, {"compound": "Cc1nc(Nc2ncc(C(=O)Nc3c(C)cccc3Cl)s2)cc(N2CCN(CCO)CC2)n1", "note": "[dasatinib]", "values": [{"measurement": "IC50", "setting": "K562 DOX 55D-R cells", "result": "> 200", "unit": "nM"}, {"measurement": "IC50", "setting": "K562 T315I-R cells", "result": "> 200", "unit": "nM"}, {"measurement": "IC50", "setting": "K562-R cells; Homo sapiens, K-562R", "result": "> 200", "unit": "nM"}, {"measurement": "IC50", "setting": "K562 DOX-R cells; Homo sapiens", "result": "> 200", "unit": "nM"}]}, {"compound": "Cc1cn(-c2cc(NC(=O)c3ccc(C)c(Nc4nccc(-c5cccnc5)n4)c3)cc(C(F)(F)F)c2)cn1", "note": "[nilotinib]", "values": [{"measurement": "IC50", "setting": "K562 DOX 55D-R cells", "result": "> 1000", "unit": "nM"}, {"measurement": "IC50", "setting": "K562 T315I-R cells", "result": "> 1000", "unit": "nM"}, {"measurement": "IC50", "setting": "K562-R cells; Homo sapiens, K-562R", "result": "> 1000", "unit": "nM"}, {"measurement": "IC50", "setting": "K562 DOX-R cells; Homo sapiens", "result": "> 1000", "unit": "nM"}]}, {"compound": "Cc1ccc(C(=O)Nc2ccc(CN3CCN(C)CC3)c(C(F)(F)F)c2)cc1C#Cc1cnc2cccnn12", "note": "[ponatinib, 3-[2-(imidazo[1,2-b]pyridazin-3-yl)ethynyl]-4-methyl-N-{4-[(4-methylpiperazin-1-yl)methyl]-3-(trifluoromethyl)phenyl}benzamide]", "values": [{"measurement": "sensitivity to ponatinib (viability)", "setting": "K562 cells", "result": "demonstrated sensitivity"}, {"measurement": "reduction in viability", "setting": "K562-R-AXL KD cells", "result": 68, "unit": "%"}, {"measurement": "viability at 0.2 µM", "setting": "K562-R cells; Homo sapiens, K-562R, 72 h", "result": "> 75", "unit": "%"}, {"measurement": "viability at 0.2 µM", "setting": "K562 DOX-R cells; Homo sapiens, K562, 72 h", "result": "> 75", "unit": "%"}, {"measurement": "sensitivity to ponatinib (viability)", "setting": "K562 DOX cells", "result": "demonstrated sensitivity"}, {"measurement": "reduction in viability", "setting": "K562 DOX-R-AXL KD cells", "result": 53, "unit": "%"}, {"measurement": "reduction in viability", "setting": "[3]", "result": 22, "unit": "%"}, {"measurement": "medium human peak plasma level", "setting": "[4]", "result": 145, "unit": "nM"}, {"measurement": "medium human trough plasma level", "setting": "[4]", "result": 64, "unit": "nM"}, {"measurement": "reduction in viability", "setting": "[5]", "result": 16, "unit": "%"}]}]}
